# What was measured:
# Type in all cases: in vivo
# Conditions in all cases: rated four to five weeks after treatment
# [1] = test system: ECHINOCHLOA CRUS-GALLI, (L) BEAU; test: Postemergence herbicidal evaluation, ECHCG (Barnyardgrass)
# Method in brief: (§1)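 Seedlings grown about two weeks in jiffy flats were sprayed through a nozzle at 40 psi with compound dispersed in 50/50 acetone/water plus 0.5% TWEEN®20, at about 0.125 to 0.500 kg/ha. Plants were kept in the greenhouse and rated visually 0–9 versus control four to five weeks after treatment; replicate tests averaged.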
# [2] = test system: ECHINOCHLOA CRUS-GALLI, (L) BEAU; test: Preemergence herbicidal evaluation, ECHCG (Barnyardgrass)
# Method in brief: (§2)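 Values are visual ratings from 0 to 9, judged against a control on stand, vigor, malformation, size, chlorosis and overall appearance. Test compound in aqueous acetone was sprayed onto freshly seeded cups at roughly 0.125 to 0.50 kg per hectare, with scoring four to five weeks later.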
# [3] = test system: ORYZA SATIVA, L. TEBONNET; test: Preemergence herbicidal evaluation, ORYSAT (Rice, Tebonnet)
# Method in brief: as §2
# [4] = test system: AMBROSIA ARTEMISIIFOLIA, L.; test: Postemergence herbicidal evaluation, AMBEL (Ragweed, Common)
# Experimental: (§3) In the tests, seedling plants are grown in jiffy flats for about two weeks. The test compounds are dispersed in 50/50 acetone/water mixtures containing 0.5% TWEEN®20, a polyoxyethylene sorbitan monolaurate surfactant of Atlas Chemical Industries, in sufficient quantities to provide the equivalent of about 0.125 kg to 0.500 kg per hectare of active compound when applied to the plants through a spray nozzle operating at 40 psi for a predetermined time. After spraying, the plants are placed on greenhouse benches and are cared for in the usual manner, commensurate with conventional greenhouse practices. From four to five weeks after treatment, the seedling plants are examined and rated according to the rating system set forth below. Where more than one test is involved for a given compound, the data are averaged.
# (§4) Results of herbicide evaluation are expressed on a rating scale (0-9). The scale is based upon a visual observation of plant stand, vigor, malformation, size, chlorosis and overall plant appearance as compared with a control.
# [5] = test system: AMBROSIA ARTEMISIIFOLIA, L.; test: Preemergence herbicidal evaluation, AMBEL (Ragweed, Common)
# Method in brief: as §2
# IPOMOEA SPP. = test: Preemergence herbicidal evaluation, IPOSS (Morningglory Spp.)
# Method in brief: as §2
# CHENOPODIUM ALBUM, L. [6] = test: Postemergence herbicidal evaluation, CHEAL (Lambsquarters, Common)
# Experimental: as §3, §4
# CASSIA OBTUSIFOLIA, L. [7] = test: Preemergence herbicidal evaluation, CASOB (Sicklepod)
# Method in brief: as §2
# GALIUM APARINE = test: Preemergence herbicidal evaluation, GALAP (Galium)
# Method in brief: as §2
# CASSIA OBTUSIFOLIA, L. [8] = test: Postemergence herbicidal evaluation, CASOB (Sicklepod)
# Method in brief: as §1
# CHENOPODIUM ALBUM, L. [9] = test: Preemergence herbicidal evaluation, CHEAL (Lambsquarters, Common)
# Method in brief: as §2
# [10] = test system: SETARIA VIRIDIS, (L) BEAU; test: Preemergence herbicidal evaluation, SETVI (Foxtail, Green)
# Method in brief: as §2
# [11] = test system: ABUTILON THEOPHRASTI, MEDIC.; test: Preemergence herbicidal evaluation, ABUTH (Velvetleaf)
# Method in brief: as §2
# ZEA MAYS L. = test: Preemergence herbicidal evaluation, ZEAMX (Corn, Field)
# Method in brief: as §2
# [12] = test system: GLYCINE MAX(L)MERR. CV. WILLIAMS; test: Preemergence herbicidal evaluation, GLXMAW (Soybean, Williams)
# Method in brief: as §2
# [13] = test system: TRITICUM AESTIVUM, CV. APOLLO; test: Preemergence herbicidal evaluation, TRZAWO (Wheat, Winter, CV. APOLLO)
# Method in brief: as §2
# [14] = test system: ABUTILON THEOPHRASTI, MEDIC.; test: Postemergence herbicidal evaluation, ABUTH (Velvetleaf)
# Experimental: as §3, §4
# [15] = test system: TRITICUM AESTIVUM, CV. APOLLO; test: Postemergence herbicidal evaluation, TRZAWO (Wheat, Winter, CV. APOLLO)
# Method in brief: as §1
# [16] = test system: SETARIA VIRIDIS, (L) BEAU; test: Postemergence herbicidal evaluation, SETVI (Foxtail, Green)
# Method in brief: as §1
# [17] = test system: ORYZA SATIVA, L. TEBONNET; test: Postemergence herbicidal evaluation, ORYSAT (Rice, Tebonnet)
# Experimental: as §3, §4
# [18] = test system: GLYCINE MAX(L)MERR. CV. WILLIAMS; test: Postemergence herbicidal evaluation, GLXMAW (Soybean, Williams)
# Experimental: as §3, §4
compound,measurement,setting,value
"COC(=O)Cn1c(=O)n(C)c(=O)n(-c2cc(N3C(=O)C4=C(CCCC4)C3=O)ccc2F)c1=O [Compound 5, Methyl 3-[5-(1-cyclohexene-1,2-dicarbox-imido)-2-fluorophenyl]tetrahydro-5-methyl-2,4,6-trioxo-s-triazine-1(2H)-acetate]",Herbicide rating (0-9) ECHCG,[1]; 0.125 kg/ha,0.0
same,Herbicide rating (0-9) ECHCG,[1]; 0.250 kg/ha,0.0
same,Herbicide rating (0-9) ECHCG,[1]; 0.500 kg/ha,0.0
same,Herbicide rating (0-9) ECHCG,[2]; 0.125 kg/ha,0.0
same,Herbicide rating (0-9) ECHCG,[2]; 0.250 kg/ha,0.0
same,Herbicide rating (0-9) ECHCG,[2]; 0.500 kg/ha,0.0
same,Herbicide rating (0-9) ORYSAT,[3]; 0.125 kg/ha,0.0
same,Herbicide rating (0-9) ORYSAT,[3]; 0.250 kg/ha,0.0
same,Herbicide rating (0-9) ORYSAT,[3]; 0.500 kg/ha,0.0
same,Herbicide rating (0-9) AMBEL,[4]; 0.125 kg/ha,2.0
same,Herbicide rating (0-9) AMBEL,[4]; 0.250 kg/ha,2.0
same,Herbicide rating (0-9) AMBEL,[4]; 0.500 kg/ha,2.0
same,Herbicide rating (0-9) AMBEL,[5]; 0.125 kg/ha,0.0
same,Herbicide rating (0-9) AMBEL,[5]; 0.250 kg/ha,0.0
same,Herbicide rating (0-9) AMBEL,[5]; 0.500 kg/ha,0.0
same,Herbicide rating (0-9) IPOSS,IPOMOEA SPP.; 0.125 kg/ha,0.0
same,Herbicide rating (0-9) IPOSS,IPOMOEA SPP.; 0.250 kg/ha,0.0
same,Herbicide rating (0-9) IPOSS,IPOMOEA SPP.; 0.500 kg/ha,0.0
same,Herbicide rating (0-9) CHEAL,"CHENOPODIUM ALBUM, L. [6]; 0.125 kg/ha",0.0
same,Herbicide rating (0-9) CHEAL,"CHENOPODIUM ALBUM, L. [6]; 0.250 kg/ha",0.0
same,Herbicide rating (0-9) CHEAL,"CHENOPODIUM ALBUM, L. [6]; 0.500 kg/ha",0.0
same,Herbicide rating (0-9) CASOB,"CASSIA OBTUSIFOLIA, L. [7]; 0.125 kg/ha",0.0
same,Herbicide rating (0-9) CASOB,"CASSIA OBTUSIFOLIA, L. [7]; 0.250 kg/ha",0.0
same,Herbicide rating (0-9) CASOB,"CASSIA OBTUSIFOLIA, L. [7]; 0.500 kg/ha",0.0
same,Herbicide rating (0-9) GALAP,GALIUM APARINE; 0.125 kg/ha,0.0
same,Herbicide rating (0-9) GALAP,GALIUM APARINE; 0.250 kg/ha,0.0
same,Herbicide rating (0-9) GALAP,GALIUM APARINE; 0.500 kg/ha,0.0
same,Herbicide rating (0-9) CASOB,"CASSIA OBTUSIFOLIA, L. [8]; 0.125 kg/ha",0.0
same,Herbicide rating (0-9) CASOB,"CASSIA OBTUSIFOLIA, L. [8]; 0.250 kg/ha",0.0
same,Herbicide rating (0-9) CASOB,"CASSIA OBTUSIFOLIA, L. [8]; 0.500 kg/ha",0.0
same,Herbicide rating (0-9) CHEAL,"CHENOPODIUM ALBUM, L. [9]; 0.125 kg/ha",0.0
same,Herbicide rating (0-9) CHEAL,"CHENOPODIUM ALBUM, L. [9]; 0.250 kg/ha",0.0
same,Herbicide rating (0-9) CHEAL,"CHENOPODIUM ALBUM, L. [9]; 0.500 kg/ha",0.0
same,Herbicide rating (0-9) SETVI,[10]; 0.125 kg/ha,0.0
same,Herbicide rating (0-9) SETVI,[10]; 0.250 kg/ha,0.0
same,Herbicide rating (0-9) SETVI,[10]; 0.500 kg/ha,0.0
same,Herbicide rating (0-9) ABUTH,[11]; 0.125 kg/ha,0.0
same,Herbicide rating (0-9) ABUTH,[11]; 0.250 kg/ha,0.0
same,Herbicide rating (0-9) ABUTH,[11]; 0.500 kg/ha,0.0
same,Herbicide rating (0-9) ZEAMX,ZEA MAYS L.; 0.125 kg/ha,0.0
same,Herbicide rating (0-9) ZEAMX,ZEA MAYS L.; 0.250 kg/ha,0.0
same,Herbicide rating (0-9) ZEAMX,ZEA MAYS L.; 0.500 kg/ha,0.0
same,Herbicide rating (0-9) GLXMAW,[12]; 0.125 kg/ha,0.0
same,Herbicide rating (0-9) GLXMAW,[12]; 0.250 kg/ha,0.0
same,Herbicide rating (0-9) GLXMAW,[12]; 0.500 kg/ha,0.0
same,Herbicide rating (0-9) TRZAWO,[13]; 0.125 kg/ha,0.0
same,Herbicide rating (0-9) TRZAWO,[13]; 0.250 kg/ha,0.0
same,Herbicide rating (0-9) TRZAWO,[13]; 0.500 kg/ha,0.0
"CC(C)OC(=O)Cn1c(=O)n(C)c(=O)n(-c2cc(N3C(=O)C4CSCCN4C3=O)c(F)cc2Cl)c1=O (stereo not drawn) [Compound 12, Isopropyl 3-{2-chloro-4-fluoro-5-[5,6,8,8a-tetrahydro-1,3-dioxo-1H-imidazo[5,1c][1,4]-thiazin-2(3H)-yl]phenyl}tetrahydro-5-methyl-2,4,6-trioxo-s-triazine-1(2H)-acetate]",Herbicide rating (0-9) ABUTH,[14]; 0.125 kg/ha,9.0
same,Herbicide rating (0-9) ABUTH,[14]; 0.250 kg/ha,9.0
same,Herbicide rating (0-9) ABUTH,[14]; 0.500 kg/ha,9.0
same,Herbicide rating (0-9) ECHCG,[2]; 0.125 kg/ha,0.0
same,Herbicide rating (0-9) ECHCG,[2]; 0.250 kg/ha,0.0
same,Herbicide rating (0-9) ECHCG,[2]; 0.500 kg/ha,0.0
same,Herbicide rating (0-9) TRZAWO,[15]; 0.125 kg/ha,2.5
same,Herbicide rating (0-9) TRZAWO,[15]; 0.250 kg/ha,2.5
same,Herbicide rating (0-9) TRZAWO,[15]; 0.500 kg/ha,2.5
same,Herbicide rating (0-9) ORYSAT,[3]; 0.125 kg/ha,0.0
same,Herbicide rating (0-9) ORYSAT,[3]; 0.250 kg/ha,0.0
same,Herbicide rating (0-9) ORYSAT,[3]; 0.500 kg/ha,0.0
same,Herbicide rating (0-9) AMBEL,[4]; 0.125 kg/ha,9.0
same,Herbicide rating (0-9) AMBEL,[4]; 0.250 kg/ha,9.0
same,Herbicide rating (0-9) AMBEL,[4]; 0.500 kg/ha,9.0
same,Herbicide rating (0-9) CHEAL,"CHENOPODIUM ALBUM, L. [6]; 0.125 kg/ha",9.0
same,Herbicide rating (0-9) CHEAL,"CHENOPODIUM ALBUM, L. [6]; 0.250 kg/ha",9.0
same,Herbicide rating (0-9) CHEAL,"CHENOPODIUM ALBUM, L. [6]; 0.500 kg/ha",9.0
same,Herbicide rating (0-9) CASOB,"CASSIA OBTUSIFOLIA, L. [7]; 0.125 kg/ha",9.0
same,Herbicide rating (0-9) CASOB,"CASSIA OBTUSIFOLIA, L. [7]; 0.250 kg/ha",9.0
same,Herbicide rating (0-9) CASOB,"CASSIA OBTUSIFOLIA, L. [7]; 0.500 kg/ha",9.0
same,Herbicide rating (0-9) CASOB,"CASSIA OBTUSIFOLIA, L. [8]; 0.125 kg/ha",9.0
same,Herbicide rating (0-9) CASOB,"CASSIA OBTUSIFOLIA, L. [8]; 0.250 kg/ha",9.0
same,Herbicide rating (0-9) CASOB,"CASSIA OBTUSIFOLIA, L. [8]; 0.500 kg/ha",9.0
same,Herbicide rating (0-9) CHEAL,"CHENOPODIUM ALBUM, L. [9]; 0.125 kg/ha",9.0
same,Herbicide rating (0-9) CHEAL,"CHENOPODIUM ALBUM, L. [9]; 0.250 kg/ha",9.0
same,Herbicide rating (0-9) CHEAL,"CHENOPODIUM ALBUM, L. [9]; 0.500 kg/ha",9.0
same,Herbicide rating (0-9) TRZAWO,[13]; 0.125 kg/ha,0.0
same,Herbicide rating (0-9) TRZAWO,[13]; 0.250 kg/ha,0.0
same,Herbicide rating (0-9) TRZAWO,[13]; 0.500 kg/ha,0.0
"C=CCn1c(=O)n(CC=C)c(=O)n(-c2cc(N3C(=O)C4=C(CCCC4)C3=O)c(F)cc2Cl)c1=O [Compound 19, N-[4-Chloro-5-(3,5-diallylhexahydro-2,4,6-trioxo-s-triazin-1-yl)-2-fluorophenyl]-1-cyclohexene-1,2-dicarboximide]",Herbicide rating (0-9) ECHCG,[1]; 0.125 kg/ha,0.0
same,Herbicide rating (0-9) ECHCG,[1]; 0.250 kg/ha,0.0
same,Herbicide rating (0-9) ECHCG,[1]; 0.500 kg/ha,0.0
same,Herbicide rating (0-9) SETVI,[16]; 0.125 kg/ha,0.0
same,Herbicide rating (0-9) SETVI,[16]; 0.250 kg/ha,0.0
same,Herbicide rating (0-9) SETVI,[16]; 0.500 kg/ha,0.0
same,Herbicide rating (0-9) ORYSAT,[17]; 0.125 kg/ha,2.0
same,Herbicide rating (0-9) ORYSAT,[17]; 0.250 kg/ha,2.0
same,Herbicide rating (0-9) ORYSAT,[17]; 0.500 kg/ha,2.0
same,Herbicide rating (0-9) TRZAWO,[15]; 0.125 kg/ha,2.0
same,Herbicide rating (0-9) TRZAWO,[15]; 0.250 kg/ha,2.0
same,Herbicide rating (0-9) TRZAWO,[15]; 0.500 kg/ha,2.0
same,Herbicide rating (0-9) GLXMAW,[18]; 0.125 kg/ha,1.0
same,Herbicide rating (0-9) GLXMAW,[18]; 0.250 kg/ha,1.0
same,Herbicide rating (0-9) GLXMAW,[18]; 0.500 kg/ha,1.0

# From patent EP0745599A2, “1-(3-Heterocyclylphenyl)-s-triazine-2,4,6-oxo or thiotrione herbicidal agents” (American Cyanamid Company, priority 1995, dated 1996)
